Assay results taken from ChEMBL document CHEMBL3045199, “Synthesis of some (E)-6-[2-(furan-2-yl)ethenyl]-1,2,4-triazin-5-ones and their biological evaluation as antitumor agents” (2013).

Columns and labels:
Type in all cases: functional
[1] = Cytotoxicity against Homo sapiens (human) non-small cell lung cancer cells after 48 hr by SRB assay; settings: Cancer cell lines
SN12C = experiment: Cytotoxicity against Homo sapiens (human) SN12C cells assessed as growth inhibition at 10 uM after 24 hr; settings: read-out: GI
CCRF-CEM = experiment: Cytotoxicity against Homo sapiens (human) CCRF-CEM cells assessed as growth inhibition at 10 uM after 24 hr; settings: read-out: GI
PC-3 = experiment: Cytotoxicity against Homo sapiens (human) PC3 cells assessed as growth inhibition at 10 uM after 24 hr; settings: PC-3, 24 h, read-out: GI
A549 = experiment: Cytotoxicity against Homo sapiens (human) A549/ATCC cells assessed as growth inhibition at 10 uM after 24 hr; settings: A549, 24 h, read-out: GI
[2] = Cytotoxicity against Homo sapiens (human) prostate cancer cells after 48 hr by SRB assay; settings: Cancer cell lines
SK-OV-3 = experiment: Cytotoxicity against Homo sapiens (human) SKOV3 cells assessed as growth inhibition at 10 uM after 24 hr; settings: SK-OV-3, 24 h, read-out: GI
MOLT-4 = experiment: Cytotoxicity against Homo sapiens (human) MOLT4 cells assessed as growth inhibition at 10 uM after 24 hr; settings: MOLT-4, 24 h, read-out: GI
NCI-H226 = experiment: Cytotoxicity against Homo sapiens (human) NCI-H226 cells assessed as growth inhibition at 10 uM after 24 hr; settings: NCI-H226, 24 h, read-out: GI
SR = experiment: Cytotoxicity against Homo sapiens (human) SR cells assessed as growth inhibition at 10 uM after 24 hr; settings: read-out: GI
K562 = experiment: Cytotoxicity against Homo sapiens (human) K562 cells assessed as growth inhibition at 10 uM after 24 hr; settings: K562, 24 h, read-out: GI
[3] = Cytotoxicity against Homo sapiens (human) breast cancer cells after 48 hr by SRB assay; settings: Cancer cell lines
[4] = Cytotoxicity against Homo sapiens (human) CNS cancer cells after 48 hr by SRB assay; settings: Cancer cell lines
HCC 2998 = experiment: Cytotoxicity against Homo sapiens (human) HCC2998 cells assessed as growth inhibition at 10 uM after 24 hr; settings: HCC 2998, 24 h, read-out: GI
786-0 = experiment: Cytotoxicity against Homo sapiens (human) 786-0 cells assessed as growth inhibition at 10 uM after 24 hr; settings: 786-0, 24 h, read-out: GI
[5] = Cytotoxicity against Homo sapiens (human) renal cancer cells after 48 hr by SRB assay; settings: Cancer cell lines
OVCAR-5 = experiment: Cytotoxicity against Homo sapiens (human) OVCAR5 cells assessed as growth inhibition at 10 uM after 24 hr; settings: OVCAR-5, 24 h, read-out: GI
[6] = Cytotoxicity against Homo sapiens (human) NCI-ADR-RES cells after 48 hr by SRB assay
M14 = experiment: Cytotoxicity against Homo sapiens (human) M14 cells assessed as growth inhibition at 10 uM after 24 hr; settings: M14, 24 h, read-out: GI
U-251 = experiment: Cytotoxicity against Homo sapiens (human) U251 cells assessed as growth inhibition at 10 uM after 24 hr; settings: U-251, 24 h, read-out: GI
SW-620 = experiment: Cytotoxicity against Homo sapiens (human) SW620 cells assessed as growth inhibition at 10 uM after 24 hr; settings: SW-620, 24 h, read-out: GI
RPMI-8226 = experiment: Cytotoxicity against Homo sapiens (human) RPMI8226 cells assessed as growth inhibition at 10 uM after 24 hr; settings: RPMI-8226, 24 h, read-out: GI
RXF 393 = experiment: Cytotoxicity against Homo sapiens (human) RXF393 cells assessed as growth inhibition at 10 uM after 24 hr; settings: RXF 393, 24 h, read-out: GI
[7] = Cytotoxicity against Homo sapiens (human) melanoma cells after 48 hr by SRB assay; settings: Melanoma cell
LOX IMVI = experiment: Cytotoxicity against Homo sapiens (human) LOXIMVI cells assessed as growth inhibition at 10 uM after 24 hr; settings: read-out: GI
IGROV-1 = experiment: Cytotoxicity against Homo sapiens (human) IGROV1 cells assessed as growth inhibition at 10 uM after 24 hr; settings: IGROV-1, 24 h, read-out: GI
SK-MEL-28 = experiment: Cytotoxicity against Homo sapiens (human) SK-MEL-28 cells assessed as growth inhibition at 10 uM after 24 hr; settings: SK-MEL-28, 24 h, read-out: GI
HT-29 = experiment: Cytotoxicity against Homo sapiens (human) HT-29 cells assessed as growth inhibition at 10 uM after 24 hr; settings: HT-29, 24 h, read-out: GI
HL-60(TB) = experiment: Cytotoxicity against Homo sapiens (human) HL-60(TB) cells assessed as growth inhibition at 10 uM after 24 hr; settings: HL-60, 24 h, read-out: GI
KM12 = experiment: Cytotoxicity against Homo sapiens (human) KM12 cells assessed as growth inhibition at 10 uM after 24 hr; settings: KM12, 24 h, read-out: GI
[8] = Cytotoxicity against Homo sapiens (human) colon cancer cells after 48 hr by SRB assay; settings: Cancer cell lines
SNB-19 = experiment: Cytotoxicity against Homo sapiens (human) SNB19 cells assessed as growth inhibition at 10 uM after 24 hr; settings: SNB-19, 24 h, read-out: GI
TK-10 = experiment: Cytotoxicity against Homo sapiens (human) TK10 cells assessed as growth inhibition at 10 uM after 24 hr; settings: TK-10, 24 h, read-out: GI
EKVX = experiment: Cytotoxicity against Homo sapiens (human) EKVX cells assessed as growth inhibition at 10 uM after 24 hr; settings: read-out: GI
NCI-H23 = experiment: Cytotoxicity against Homo sapiens (human) NCI-H23 cells assessed as growth inhibition at 10 uM after 24 hr; settings: NCI-H23, 24 h, read-out: GI
UACC-257 = experiment: Cytotoxicity against Homo sapiens (human) UACC257 cells assessed as growth inhibition at 10 uM after 24 hr; settings: UACC-257, 24 h, read-out: GI
MCF7 = experiment: Cytotoxicity against Homo sapiens (human) MCF7 cells assessed as growth inhibition at 10 uM after 24 hr; settings: MCF7, 24 h, read-out: GI
[9] = Cytotoxicity against Homo sapiens (human) ovarian cancer cells after 48 hr by SRB assay; settings: Cancer cell lines
[10] = read-out: LC50 (the source's name)

Q: What does the source list for Nc1cc(-c2ccc(Cl)cc2)nn1-c1nc(=O)c(/C=C/c2ccco2)n[nH]1?
A: GI50 [1]: 4.47 µM; TGI [1]: 41.1 µM; CC50 [1, 10]: > 100 µM; inhibition of growth at 10 µM (SN12C): 31.8%; inhibition of growth at 10 µM (CCRF-CEM): 66.1%; inhibition of growth at 10 µM (PC-3): 47.4%; inhibition of growth at 10 µM (A549): 62.7%; GI50 [2]: 4.3 µM; TGI [2]: 40.1 µM; CC50 [2, 10]: 50 µM; inhibition of growth at 10 µM (SK-OV-3): 39.3%; inhibition of growth at 10 µM (MOLT-4): 55.6%; inhibition of growth at 10 µM (NCI-H226): 52.6%; inhibition of growth at 10 µM (SR): 61.9%; inhibition of growth at 10 µM (K562): 58.3%; GI50 [3]: 6.39 µM; TGI [3]: 48.1 µM; CC50 [3, 10]: > 100 µM; GI50 [4]: 4.99 µM; TGI [4]: 44.5 µM; CC50 [4, 10]: > 100 µM; inhibition of growth at 10 µM (HCC 2998): 51.5%; inhibition of growth at 10 µM (786-0): 53.1%; GI50 [5]: 5.85 µM; TGI [5]: 37.4 µM; CC50 [5, 10]: > 100 µM; inhibition of growth at 10 µM (OVCAR-5): 39.1%; GI50 [6]: 1.23 µM; TGI [6]: 8.11 µM; CC50 [6, 10]: 96.4 µM; inhibition of growth at 10 µM (M14): 42.6%; inhibition of growth at 10 µM (U-251): 49.4%; inhibition of growth at 10 µM (SW-620): 50.8%; inhibition of growth at 10 µM (RPMI-8226): 56.7%; inhibition of growth at 10 µM (RXF 393): 32.2%; GI50 [7]: 6.7 µM; TGI [7]: 59.3 µM; CC50 [7, 10]: > 100 µM; inhibition of growth at 10 µM (LOX IMVI): 50.1%; inhibition of growth at 10 µM (IGROV-1): 65%; inhibition of growth at 10 µM (SK-MEL-28): 33.6%; inhibition of growth at 10 µM (HT-29): 55.8%; inhibition of growth at 10 µM (HL-60(TB)): 4.83%; inhibition of growth at 10 µM (KM12): 44%; GI50 [8]: 4.27 µM; TGI [8]: 22 µM; CC50 [8, 10]: > 100 µM; inhibition of growth at 10 µM (SNB-19): 42.4%; inhibition of growth at 10 µM (TK-10): 48.8%; inhibition of growth at 10 µM (EKVX): 58.3%; inhibition of growth at 10 µM (NCI-H23): 41.2%; inhibition of growth at 10 µM (UACC-257): 30.4%; inhibition of growth at 10 µM (MCF7): 54.1%; GI50 [9]: 3.8 µM; TGI [9]: 43.1 µM; CC50 [9, 10]: 89.7 µM
